Experimental data: patent US9771369B2, “Compounds and methods for kinase modulation, and indications therefor” (Plexxikon Inc., priority 2014, dated 2017)

Key:
c-Kit kinase = c-Kit kinase (Homo sapiens (Human), UniProt P10721); test: c-Kit biochemical assay (AlphaScreen kinase activity)
Experimental: Assays for biochemical cell-based activity of c-kit kinase are known in the art, for example, as described in U.S. Pat. Nos. 7,498,342 and 7,846,941, the disclosures of which are hereby incorporated by reference as it relates to such assays. The c-kit (or kinase domain thereof) is an active kinase in AlphaScreen. IC50 values are determined with respect to inhibition of c-Kit kinase activity, where inhibition of phosphorylation of a peptide substrate is measured as a function of compound concentration. Compounds to be tested were dissolved in DMSO to a concentration of 30 mM. These were diluted 30 μl into 130 μl of DMSO (4 mM) and 1 μl was added to an assay plate. These were then serially diluted 1:3 (50 μl to 100 μl DMSO) for a total of 8 points. Plates were prepared such that each kinase reaction is 30 μl in 1× kinase buffer (50 mM HEPES, pH 7.2, 5 mM MgCl2, 5 mM MnCl2, 0.01% NP-40, 0.2% BSA), 5% DMSO and 10 μM ATP. Substrate was 100 nM biotin-(E4Y)3 (Open Source Biotech, Inc.). C-kit kinase was at 0.1 ng per sample. After incubation of the kinase reaction for 1 hour at room temperature, 5 μl of donor beads (Streptavidin coated beads (Perkin Elmer Life Science) final concentration 1 μg/ml) in stop buffer (50 mM EDTA in 1× kinase buffer) was added, the sample was mixed and incubated for 30 minutes at room temperature before adding […] of acceptor beads (PY30 coated beads (Perkin Elmer Life Science) final concentration 1 μg/ml) in stop buffer. The samples were incubated for 60 minutes at room temperature and the signal per well was read on AlphaQuest reader. Phosphorylated substrate results in binding of the PY30 antibody and association of the donor and acceptor beads such that signal correlates with kinase activity. The signal vs. compound concentration was used to determine the IC50.
Compounds were also tested using a similar assay with a 10-fold higher ATP concentration. For these samples, compounds to be tested were dissolved in DMSO to a concentration of 30 mM. These were diluted 30 μl into 130 μl of DMSO (4 mM) and 1 μl was added to an assay plate. These were then serially diluted 1:3 (50 μl to 100 μl DMSO) for a total of 8 points. Plates were prepared such that each kinase reaction is 30 μl in 1× kinase buffer (25 mM HEPES, pH 7.5, 2 mM MgCl2, 2 mM MnCl2, 0.01% […], 1 mM DTT, and 0.001% BSA), 5% DMSO and 100 μM ATP. Substrate was 30 nM biotin-(E4Y)10 (Upstate Biotech, Cat#12-440). C-kit kinase was at 1 ng per sample. After incubation of the kinase reaction for 1 hour at room temperature, 5 μl of donor beads (Streptavidin coated beads (Perkin Elmer Life Science) final concentration 10 μg/ml) in stop buffer (25 mM HEPES pH 7.5, 100 mM EDTA, 0.3% BSA) was added, the sample was mixed and incubated for 30 minutes at room temperature before adding 5 μl of acceptor beads (PY30 coated beads (Perkin Elmer Life Science) final concentration 10 μg/ml) in stop buffer. The samples were incubated for 60 minutes at room temperature and the signal per well was read on AlphaQuest or Envision reader (Perkin Elmer Life Science). Phosphorylated substrate results in binding of the PY30 antibody and association of the donor and acceptor beads such that signal correlates with kinase activity. The signal vs. compound concentration was used to determine the IC50.
The c-kit enzyme used in the above assay was either obtained from Cell Signaling Technology (Cat. #7754) or was prepared as follows: A plasmid encoding kit (DNA and encoded protein sequences shown below) was engineered using common polymerase chain reaction (PCR) methods. Complementary DNA cloned from various human tissues were purchased from Invitrogen, and these were used as substrates in the PCR reactions. Specific custom synthetic oligonucleotide primers were designed to initiate the PCR product, and also to provide the appropriate restriction enzyme cleavage sites for ligation with the plasmids. […]

[1] = tested on: BaF3-FL KIT D816V or BaF3-FL KIT V560G/D816V cell line; test: Cell-based assays of c-Kit mutant kinase activity (cell proliferation, ATPlite); settings: at least one of the c-kit cell assays of Example 7
Experimental: The c-Kit mutant D816V inhibitors were assessed using an engineered BaF3-FL KIT D816V or BaF3-FL KIT V560G/D816V cell line. The BaF3-FL KIT D816V cell lines were created by introduction of KIT mutant (D816V) full length constructs that render the cells dependent on the introduced kinase for growth. Inhibitors of c-Kit mutant D816V kinase reduce or eliminate the mediated c-kit mutant D816V kinase activation, resulting in reduced cell proliferation of the BaF3-FL Kit mutant D816V cells. This inhibition is measured by the effect of compound concentration on cell growth to assess IC50 values. BaF3-FL KIT D816V cells were seeded at 1×10^4 cells per well of a 96 well cell culture plate in 50 μl of cell culture medium of RPMI Medium 1× (Invitrogen #11875-093) supplemented with 10% FBS (Invitrogen #10438), 1% Non Essential Amino Acids (Invitrogen #11140), 1% Penicillin Streptomycin (Invitrogen #15140), 1% L-Glutamine (Invitrogen #25030-081). Compounds were dissolved in DMSO at a concentration of 5 mM and were serially diluted 1:3 for a total of eight points and added to the cells to a final maximum concentration of 10 μM in 100 μl cell culture medium (final concentration 0.2% DMSO). Cells were also treated with Dasatinib as a positive control. The cells were incubated at 37° C., 5% CO2 for three days. ATPlite Buffer (Perkin Elmer #6016739) and substrate were equilibrated to room temperature, and enzyme/substrate Recombinant Firefly Luciferase/D-Luciferin was reconstituted. The cell plates were equilibrated to room temperature for 30 minutes, then lysed by addition of 25 μL per well of the ATPlite Reagent. The plate was mixed for 5 minutes on a plate shaker to lyse the cells. The plates were read on a Tecan Safire using Luminescence protocol modified to read 0.1s per well. The luminescence reading assesses the ATP content, which correlates directly with cell number such that the reading as a function of compound concentration is used to determine the IC50 value.
Plasmids P75635 and P75565 were engineered for mammalian cell expression. In both plasmids, full-length human v-kit Hardy-Zuckerman 4 feline sarcoma viral oncogene homolog gene (NCBI accession NM_000222, KIT, residues M1-V976) was subcloned into the pCI-Neo vector (Promega E1841). Plasmid P75635 contains the mutation of residue Aspartic acid 816 to Valine. Plasmid P75565 contains the double mutation of residues Valine 560 to Glycine and Aspartic acid 816 to Valine. The pCI-neo Mammalian Expression Vector carries the human cytomegalovirus (CMV) immediate-early enhancer/promoter region to promote constitutive expression of KIT and contains the neomycin phosphotransferase gene, a selectable marker.
It is understood that the results of these assays may vary as assay conditions are varied. Inhibition levels determined under the conditions described herein represent a relative activity for the compounds tested under the specific conditions employed. The cell based assays are likely to show variability due to the complexity of the system and the sensitivity thereof to any changes in the assay conditions. […] In some instances, the compounds were not tested in all of the assays, or assay results were not valid.

c-Kit kinase, sequence (P10721 26-976): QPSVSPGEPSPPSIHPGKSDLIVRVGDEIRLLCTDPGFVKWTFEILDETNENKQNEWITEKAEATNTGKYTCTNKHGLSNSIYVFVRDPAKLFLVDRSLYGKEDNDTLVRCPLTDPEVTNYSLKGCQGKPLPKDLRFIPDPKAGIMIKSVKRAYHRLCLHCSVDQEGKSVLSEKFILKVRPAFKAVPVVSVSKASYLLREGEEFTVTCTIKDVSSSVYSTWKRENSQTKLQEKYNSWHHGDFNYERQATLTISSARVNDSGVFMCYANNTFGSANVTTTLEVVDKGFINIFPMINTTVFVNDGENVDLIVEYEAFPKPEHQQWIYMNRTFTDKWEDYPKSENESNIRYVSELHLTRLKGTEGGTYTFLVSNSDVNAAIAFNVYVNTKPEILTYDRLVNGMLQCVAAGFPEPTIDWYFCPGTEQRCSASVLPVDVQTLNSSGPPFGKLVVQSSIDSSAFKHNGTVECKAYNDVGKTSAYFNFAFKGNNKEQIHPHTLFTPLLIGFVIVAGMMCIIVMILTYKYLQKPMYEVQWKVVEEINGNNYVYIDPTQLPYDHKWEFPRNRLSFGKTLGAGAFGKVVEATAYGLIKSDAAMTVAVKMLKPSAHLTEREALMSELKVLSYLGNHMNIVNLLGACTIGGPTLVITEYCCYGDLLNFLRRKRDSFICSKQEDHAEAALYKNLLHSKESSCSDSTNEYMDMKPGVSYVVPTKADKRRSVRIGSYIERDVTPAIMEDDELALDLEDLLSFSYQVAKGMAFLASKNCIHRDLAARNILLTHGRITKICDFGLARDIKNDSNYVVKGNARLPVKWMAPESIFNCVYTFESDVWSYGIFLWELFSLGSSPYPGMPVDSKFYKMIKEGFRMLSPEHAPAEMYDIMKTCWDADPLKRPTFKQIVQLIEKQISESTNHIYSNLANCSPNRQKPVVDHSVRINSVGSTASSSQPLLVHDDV

SMILES	IC50 (c-Kit kinase) [µM]	IC50 [1] [µM]
Cc1nc(C2CCN(c3ncnc4[nH]c(-c5ccc(F)cc5)cc34)CC2)[nH]c1-c1cccc(OC(F)(F)F)c1 [P-3011, 6-(4-fluorophenyl)-4-[4-[4-methyl-5-[3-(trifluoromethoxy)phenyl]-1H-imidazol-2-yl]-1-piperidyl]-7H-pyrrolo[2,3-d]pyrimidine]	1 to 10	< 10
Fc1ccc(-c2cc3c(N4CCC(c5nnc(-c6cccc(OC(F)F)c6)[nH]5)CC4)ncnc3[nH]2)cc1 [P-3204, 4-[4-[5-[3-(difluoromethoxy)phenyl]-4H-1,2,4-triazol-3-yl]-1-piperidyl]-6-(4-fluorophenyl)-7H-pyrrolo[2,3-d]pyrimidine]	10 to 300	< 10
COc1cc(-c2cc3c(N4CCC(c5nc(C)c(-c6ccc(C)s6)[nH]5)CC4)ncnc3[nH]2)ccn1 [P-3117, 6-(2-methoxy-4-pyridyl)-4-[4-[4-methyl-5-(5-methyl-2-thienyl)-1H-imidazol-2-yl]-1-piperidyl]-7H-pyrrolo[2,3-d]pyrimidine]	0.0001 to 1	< 10
CCOc1ccc(-c2[nH]c(C3(CC)CCN(c4ncnc5[nH]c(C)cc45)CC3)nc2C)cc1C [P-3142, 4-[4-[5-(4-ethoxy-3-methyl-phenyl)-4-methyl-1H-imidazol-2-yl]-4-ethyl-1-piperidyl]-6-methyl-7H-pyrrolo[2,3-d]pyrimidine]	1 to 10	< 10
CCOc1ccc(-c2[nH]c(C3(C)CCN(c4ncnc5[nH]c(C)cc45)CC3)nc2C)cc1C [P-3099, 4-[4-[5-(4-ethoxy-3-methyl-phenyl)-4-methyl-1H-imidazol-2-yl]-4-methyl-1-piperidyl]-6-methyl-7H-pyrrolo[2,3-d]pyrimidine]	0.0001 to 1	< 10
Cc1cc2c(N3CCC(C)(c4nc(C)c(-c5ccc(C(F)(F)F)cc5)[nH]4)CC3)ncnc2[nH]1 [P-3165, 6-methyl-4-[4-methyl-4-[4-methyl-5-[4-(trifluoromethyl)phenyl]-1H-imidazol-2-yl]-1-piperidyl]-7H-pyrrolo[2,3-d]pyrimidine]	1 to 10	< 10
COc1ccc(-c2[nH]c(C3CCN(c4ncnc5[nH]c(C)cc45)CC3)nc2C)cc1 [P-3130, 4-[4-[5-(4-methoxyphenyl)-4-methyl-1H-imidazol-2-yl]-1-piperidyl]-6-methyl-7H-pyrrolo[2,3-d]pyrimidine]	1 to 10	< 10
Cc1nc(C2(C)CCN(c3ncnc4[nH]c(-c5ccc(C#N)cc5)cc34)CC2)[nH]c1-c1ccc2c(c1)OCO2 [P-3159, 4-[4-[4-[5-(1,3-benzodioxol-5-yl)-4-methyl-1H-imidazol-2-yl]-4-methyl-1-piperidyl]-7H-pyrrolo[2,3-d]pyrimidin-6-yl]benzonitrile]	0.0001 to 1	< 10
Cc1nc(C2CCN(c3ncnc4[nH]c(-c5cnn(C(F)F)c5)cc34)CC2)[nH]c1-c1ccc(F)cc1 [P-3107, 6-[1-(difluoromethyl)pyrazol-4-yl]-4-[4-[5-(4-fluorophenyl)-4-methyl-1H-imidazol-2-yl]-1-piperidyl]-7H-pyrrolo[2,3-d]pyrimidine]	0.0001 to 1	< 10
COc1cccc(-c2[nH]c(C3(C)CCN(c4ncnc5[nH]c(-c6cnn(C(F)F)c6)cc45)CC3)nc2C)c1 [P-3168, 6-[1-(difluoromethyl)pyrazol-4-yl]-4-[4-[5-(3-methoxyphenyl)-4-methyl-1H-imidazol-2-yl]-4-methyl-1-piperidyl]-7H-pyrrolo[2,3-d]pyrimidine]	0.0001 to 1	< 10
COc1cccc(-c2[nH]c(C3(C)CCN(c4ncnc5[nH]c(C)cc45)CC3)nc2C)c1 [P-3166, 4-[4-[5-(3-methoxyphenyl)-4-methyl-1H-imidazol-2-yl]-4-methyl-1-piperidyl]-6-methyl-7H-pyrrolo[2,3-d]pyrimidine]	1 to 10	< 10
Cc1nc(C2CCN(c3ncnc4[nH]c(-c5ccc(C#N)cc5)cc34)CC2)[nH]c1-c1ccc2c(c1)OCCO2 [P-3132, 4-[4-[4-[5-(2,3-dihydro-1,4-benzodioxin-6-yl)-4-methyl-1H-imidazol-2-yl]-1-piperidyl]-7H-pyrrolo[2,3-d]pyrimidin-6-yl]benzonitrile]	0.0001 to 1	< 10
Cc1nc(C2CCN(c3ncnc4[nH]c(-c5ccc(C#N)cc5)cc34)CC2)[nH]c1-c1ccc(OC(F)F)cc1 [P-3113, 4-[4-[4-[5-[4-(difluoromethoxy)phenyl]-4-methyl-1H-imidazol-2-yl]-1-piperidyl]-7H-pyrrolo[2,3-d]pyrimidin-6-yl]benzonitrile]	1 to 10	< 10
Cc1nc(C2CCN(c3ncnc4[nH]c(-c5cnn(C(F)F)c5)cc34)CC2)[nH]c1-c1ccc(OC(F)F)cc1 [P-3115, 4-[4-[5-[4-(difluoromethoxy)phenyl]-4-methyl-1H-imidazol-2-yl]-1-piperidyl]-6-[1-(difluoromethyl)pyrazol-4-yl]-7H-pyrrolo[2,3-d]pyrimidine]	0.0001 to 1	< 10
COc1cc(-c2cc3c(N4CCC(c5nc(C)c(-c6ccc(C)c(OC)c6)[nH]5)CC4)ncnc3[nH]2)ccn1 [P-3104, 4-[4-[5-(3-methoxy-4-methyl-phenyl)-4-methyl-1H-imidazol-2-yl]-1-piperidyl]-6-(2-methoxy-4-pyridyl)-7H-pyrrolo[2,3-d]pyrimidine]	10 to 300	< 10
